According to patent US7977369B2, “Medical compositions for intravesical treatment of bladder cancer” (Spectrum Pharmaceuticals, Inc., priority 2001, dated 2011):
≈ marks a conversion by molar mass, not a printed value. Like-named read-outs stand apart in the source and are kept apart here.

Tests used:
[1] = Stability of EO9 at acidic pH; details: buffer
[2] = test system: NQ01 rich and deficient tumors; details: intratumoural administration; cited from earlier work
[3] = Solubility of EO9 in formulation vehicle and water
[4] = test system: NSCLC, gastric, breast, pancreatic and colon cancers; details: phase II trials; cited from earlier work
[5] = test system: BE; assay: Chemosensitivity, one hour drug exposure, MTT assay, monolayer; type: cell-based, human
Excerpt: (§1) Cell culture and chemosensitivity studies. […] H460 (human NSCLC) cell line was obtained from the American Type Culture Collection (ATCC). HT-29 (human colon carcinoma), RT112/83 (human bladder carcinoma epithelial), EJ138 (human bladder carcinoma) and T24/83 (human bladder transitional cell carcinoma) cell lines were obtained from the European Collection of Animal Cell Cultures (ECACC). A2780 (human ovarian carcinoma) and BE (human colon carcinoma) cells were gifts from Dr T Ward (Paterson Institute, Manchester, UK). All cell lines were maintained as monolayer cultures in RPNII 1640 culture medium supplemented with fetal calf serum (10%), sodium pyruvate (2 mM), L-glutamine (2 mM), penicillin/streptomycin (50 IU/ml/50 jug/ml) and buffered with HEPES (25 mK). All cell culture materials were purchased from Gibco BRL (Paisley, UK). […] Calibration curves were conducted over a broad range of pH values in culture medium (pH 3.5 to 11) and the stability of the pH conditions monitored over a one hour incubation period at 37° C.

[6] = test system: H460; assay: as above; type: cell-based, human
Excerpt: as §1

[7] = test system: EJ138; assay: as above; type: cell-based, human
Excerpt: as §1

[8] = test system: A2780; assay: as above; type: cell-based, human
Excerpt: as §1

[9] = test system: RT112; assay: as above; type: cell-based, human
Excerpt: as §1

[10] = test system: HT-29; assay: as above; type: cell-based, human
Excerpt: as §1

[11] = test system: T24/83; assay: as above; type: cell-based, human
Excerpt: as §1

[12] = test system: HT-29 multicell spheroids; assay: Chemosensitivity of HT-29 multicell spheroids; type: cell-based, human; details: for IC50: Homo sapiens, HT-29, 1 h, spheroids
Description: HT-29 multicell spheroids were prepared by seeding 5×10^5 cells into T25 flasks which had been based coated with agar (1% w/v) and incubated for 24 h at 37° C. Immature spheroids were then transferred to a spinner flask (Techne) containing 250 ml of RPMI 1640 growth medium and spheroids were kept in suspension by stirring at 50 rpm. When spheroids reached a diameter of approximately 500 Am, they were harvested for chemosensitivity studies. Multicell spheroids were exposed to a range of EO9 concentrations at pHe 6.0 and 7.4 for one hour at 37° C. Following drug incubation, spheroids were washed twice in HBSS prior to dissagregation into single cells using trypsin EDTA. Disaggregated spheroids were then washed in HBSS and then plated into 96 well plates (1×10^3 cells per well) and incubated at 37° C. for four days. Chemosensitivity was assessed using the NM assay as described elsewhere (Phillips et al, 1992).

[13] = phase I clinical trials; cited from earlier work
[14] = in humans; cited from earlier work
[15] = target: T1, recombinant human NQO1 (Homo sapiens, UniProt P15559); assay: Substrate specificity: reduction of EO9 by NQO1, cytochrome c reporter; type: biochemical
T1 construct: made in house; host or cells: E. coli (pKK233-2 plasmid, IPTG induction)
T1 sequence (P15559 whole entry): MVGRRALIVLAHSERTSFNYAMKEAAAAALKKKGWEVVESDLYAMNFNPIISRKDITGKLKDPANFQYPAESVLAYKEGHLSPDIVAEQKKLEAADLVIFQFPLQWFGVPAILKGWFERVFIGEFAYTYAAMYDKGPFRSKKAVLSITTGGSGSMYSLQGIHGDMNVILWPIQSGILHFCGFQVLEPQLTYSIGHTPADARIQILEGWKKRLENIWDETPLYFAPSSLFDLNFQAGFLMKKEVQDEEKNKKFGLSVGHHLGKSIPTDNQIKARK
Description: Substrate specificity. The influence of acidic pHe on substrate specificity for purified human NQ01 was determined as described previously (Phillips 1996, Walton et al, 1991). NQ01 mediated reduction of the quinone to the hydroquinone species is difficult to detect by conventional assays thereby necessitating the use of a reporter signal generating step. In this assay, the hydroquinone acts as an intermediate electron acceptor which subsequently reduces cytochrome c which can readily be detected spectrophotometrically. Recombinant human NQ01 was derived from E. coli transformed with the pKK233-2 expression plasmid containing the full length cDNA sequence for human NQ01 isolated from the (Beall et al, 1994). Following IPTG induction, NQO1 was purified by cybacron blue affinity chromatography, details of which are described elsewhere (Phillips, 1996). […] Reduction of EO9 by recombinant human NQO1 was determined at pH 6.0 and 7.4 by measuring the rate of reduction of cytochrome c was measured at 550 nm on a Beckman DU 650 spectrophotometer according to previously published methods (Phillips, 1996).

[16] = test system: H460 cells; assay: Response of H460 cells to EO9 in the presence or absence of FAA (2 mM); type: cell-based, human; details: for IC50: Homo sapiens, NCI-H460, H460 cells
Description: Briefly, H460 cells (NQO1 rich) were plated into 96 well plates at a density of 2×10^3 cells per well. Following an overnight incubation at 37° C., medium was replaced with fresh medium (pH 7.4) containing a non-toxic concentration of FAA (2 mM) and incubated for one hour at 37° C. Medium was then replaced with fresh medium containing EO9 (range of drug concentrations) and FAA (2 mM) at either pHe 7.4 or 6.0. Following a further one hour incubation at 37° C., cells were washed twice with HBSS and incubated at 37° C. in growth medium for five days. Chemosensitivity was determined by the NM assay as described above and results were expressed in terms of IC50 values, selectivity ratios (IC50 at pHe 7.4/IC50 at pHe 6.0) and protection ratios (ICSO FAA/EO9 combinations/IC50 for EO9 alone).

[17] = test system: histocultures; details: cited from earlier work

For `Cn1c(/C=C/CO)c(CO)c2c1C(=O)C=C(N1CC1)C2=O` [EO9, 5-(1-aziridinyl)-3-(hydroxymethyl)-2-[(E)-3-hydroxyprop-1-enyl]-1-methyl-1H-indole-4,7-dione], the half-life ([1]; pH 5.5) is given as 37 min, the half-life ([1]; pH 6) is given as 150 min and the tumor growth delay [2] is given as “significant growth delays”. The solubility ([3]; tert-butanol formulation vehicle, aqueous with cosolvent or surfactant or cyclodextrin) was no less than 9500 µg/mL, the solubility ([3]; water) was roughly 200 µg/mL (≈ 694 µM) and the clinical activity [4] was “no activity”. For the same molecule, the “SR (selectivity ratio) = IC50 at pH 7.4/IC50 at pH 6.0” value (“SR (selectivity ratio) = IC50” for short) ([5]; BE) was 4.07, the IC50 ([5]; Homo sapiens, 1 h, read-out: IC50 pHe 6.0) was 1300 ± 75 nM and the IC50 ([5]; Homo sapiens, 1 h, read-out: IC50 pHe 7.4) was 5300 ± 169 nM. The “SR (selectivity ratio) = IC50” value ([6]; H460) was 6.31, the IC50 ([6]; Homo sapiens, NCI-H460, 1 h, read-out: IC50 pHe 6.0) was 9.5 ± 2 nM and the IC50 ([6]; Homo sapiens, NCI-H460, 1 h, read-out: IC50 pHe 7.4) was 60 ± 10 nM. The “SR (selectivity ratio) = IC50” value ([7]; EJ138) was 7.94, the IC50 ([7]; Homo sapiens, EJ138, 1 h, read-out: IC50 pHe 6.0) was 39 ± 7 nM and the IC50 ([7]; Homo sapiens, EJ138, 1 h, read-out: IC50 pHe 7.4) was 310 ± 95 nM. The “SR (selectivity ratio) = IC50” value ([8]; A2780) was 3.92, the IC50 ([8]; Homo sapiens, A2780, 1 h, read-out: IC50 pHe 6.0) was 51 ± 14 nM and the IC50 ([8]; Homo sapiens, A2780, 1 h, read-out: IC50 pHe 7.4) was 200 ± 50 nM. The IC50 ([9]; Homo sapiens, RT-112, 1 h, read-out: IC50 pHe 6.0) was 61 ± 13 nM, the IC50 ([9]; Homo sapiens, RT-112, 1 h, read-out: IC50 pHe 7.4) was 1050 ± 75 nM and the “SR (selectivity ratio) = IC50” value ([9]; RT112) was 17.21. The “SR (selectivity ratio) = IC50” value ([10]; HT-29) was 4.13, the IC50 ([10]; Homo sapiens, HT-29, 1 h, read-out: IC50 pHe 6.0) was 29 ± 10 nM and the IC50 ([10]; Homo sapiens, HT-29, 1 h, read-out: IC50 pHe 7.4) was 120 ± 53 nM. For the same molecule, the IC50 ([11]; Homo sapiens, T24/83, 1 h, read-out: IC50 pHe 6.0) was 60 ± 18 nM, the IC50 ([11]; Homo sapiens, T24/83, 1 h, read-out: IC50 pHe 7.4) was 290 ± 65 nM and the “SR (selectivity ratio) = IC50” value ([11]; T24/83) was 4.83. For the same molecule, the “ratio of IC50 values for spheroids to monolayers” value ([12]; HT-29, pHe 6.0) was 341, the “ratio of IC50 values for spheroids to monolayers” value ([12]; HT-29, pHe 7.4) was 202 and the IC50 ([12]; pHe 6.0, one hour exposure) was 9890 ± 890 nM. The IC50 ([12]; pHe 7.4, one hour exposure) was 24200 ± 3290 nM, the “cells killed in spheroids” value ([12]; at higher doses) was greater than 90% and the clinical response [13] was “three partial remissions”. For the same molecule, the plasma elimination half-life [14] was 10 min, the “rate of reduction of EO9 by purified human NQO1” value ([15]; pH 6.0) was 21.30±1.50 nmol cytochrome c reduced/min/mg protein and the “specific activity, cytochrome c reduced/min/mg protein” value ([15]; pH 6.0) was 21.30±1.5 pmol cytochrome c reduced/min/mg protein. The “rate of reduction of EO9 by purified human NQO1” value ([15]; pH 7.4) was 21.10±2.30 nmol cytochrome c reduced/min/mg protein, the “specific activity, cytochrome c reduced/min/mg protein” value ([15]; pH 7.4) was 21.10±2.3 pmol cytochrome c reduced/min/mg protein and the “SR = Selectivity Ratio, IC50 at pHe 7.4 divided by IC50 at pHe 6.0” value ([16]; H460 cells, with or without FAA 2 mM) was 6.31. The IC50 ([16]; pHe 6.0, with or without FAA 2 mM) was 9.5 ± 2.6 nM and the IC50 ([16]; pHe 7.4, with or without FAA 2 mM) was 60 ± 8.1 nM.
`CO[C@@]12[C@H](COC(N)=O)C3=C(C(=O)C(C)=C(N)C3=O)N1C[C@@H]1N[C@@H]12` [MMC, Mitomycin C, reference compound] gave an IC50 ([5]; BE, pHe 6.0, one hour exposure, read-out: IC50 pHe 6.0) of 4400 ± 215 nM, an IC50 ([5]; BE, pHe 7.4, one hour exposure, read-out: IC50 pHe 7.4) of 7000 ± 192 nM and an IC50 ([6]; H460, pHe 6.0, one hour exposure, read-out: IC50 pHe 6.0) of 220 ± 130 nM. For the same molecule, the IC50 ([6]; H460, pHe 7.4, one hour exposure, read-out: IC50 pHe 7.4) was 900 ± 200 nM, the IC50 ([7]; EJ138, pHe 6.0, one hour exposure, read-out: IC50 pHe 6.0) was 1400 ± 250 nM and the IC50 ([7]; EJ138, pHe 7.4, one hour exposure, read-out: IC50 pHe 7.4) was 1600 ± 200 nM. It also gave an IC50 ([8]; A2780, pHe 6.0, one hour exposure, read-out: IC50 pHe 6.0) of 1400 ± 130 nM, an IC50 ([8]; A2780, pHe 7.4, one hour exposure, read-out: IC50 pHe 7.4) of 2400 ± 340 nM and an IC50 ([9]; RT112, pHe 6.0, one hour exposure, read-out: IC50 pHe 6.0) of 2000 ± 500 nM. The IC50 ([9]; RT112, pHe 7.4, one hour exposure, read-out: IC50 pHe 7.4) was 3350 ± 250 nM, the IC50 ([10]; HT-29, pHe 6.0, one hour exposure, read-out: IC50 pHe 6.0) was 500 ± 240 nM and the IC50 ([10]; HT-29, pHe 7.4, one hour exposure, read-out: IC50 pHe 7.4) was 1050 ± 210 nM. The IC50 ([11]; T24/83, pHe 6.0, one hour exposure, read-out: IC50 pHe 6.0) was 2100 ± 800 nM, the IC50 ([11]; T24/83, pHe 7.4, one hour exposure, read-out: IC50 pHe 7.4) was 2150 ± 93 nM and the “difference in toxicity between physiological and acidic pHe” value [17] was “no difference in toxicity”.
